Experimental data taken from patent publication US6831199B1, “Pyrimidine compounds and derivatives thereof” (G. D. Searle & Co., priority 1995, dated 2004).
Structures can show the parent of a compound that is named as a salt.

Key:
[1] = target: T1, Human vitronectin receptor (αvβ3) (Homo sapiens, UniProt P05106+P06756); test: Vitronectin adhesion assay (solid phase receptor assay, competition with biotinylated vitronectin); assay type: binding; conditions: read-out: AvB3 IC50
T1 construct: Human vitronectin receptor (αvβ3) was purified from human placenta; from tissue; host or cells: human placenta
Method in brief: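 Purified human αvβ3 coated overnight at 4 °C in TBS with 1.0 mM Ca++, Mg++, Mn++, pH 7.4; compounds (top final 1.0×10^−4 M) competed with 1 nM biotinylated vitronectin for 2 h at room temperature. Bound ligand detected by HRP anti-biotin/OPD at A450; values normalized to no-competitor controls, four-parameter curve fit.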

[2] = target: T2, Human fibrinogen receptor (αIIbβ3) (Homo sapiens, UniProt P05106+P08514); test: Purified IIb/IIIa receptor assay (solid phase receptor assay, competition with biotinylated vitronectin); assay type: binding; conditions: read-out: IIb/IIIa IC50
T2 construct: Human fibrinogen receptor (αIIbβ3) was purified from outdated platelets; from tissue; host or cells: outdated human platelets
Method in brief: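 Purified platelet αIIbβ3 coated overnight at 4 °C in TBS with 1.0 mM Ca/Mg/Mn, pH 7.4, then BSA-blocked. Compounds (top 1.0×10^−4 M) competed with 1 nM biotinylated vitronectin for 2 h at room temperature. Bound label detected by HRP anti-biotin, A450; values normalized to no-competitor controls, four-parameter fit.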

SMILES | IC50 [1] | IC50 [2]
C#C[C@H](CC(=O)O)NC(=O)CNC(=O)c1cccc(N/C(=N\C#N)NCc2ccc(S(N)(=O)=O)cc2)c1 [Example 158, 3S-[[2-[[[3-[[[[(4-(aminosulfonyl)phenylmethyl]amino](cyanoimino)methyl]amino]phenyl]carbonyl]amino]acetyl]amino]-4-pentynoic acid, trifluoroacetate salt, monohydrate] | 10.1 nM | 547 nM
N#C/N=C(/N)Nc1cccc(C(=O)NCC(=O)NC(CC(=O)O)c2cc(Cl)cc(Cl)c2)c1 (stereo not drawn) [Example 160, β-[[2-[[[3-[[amino(cyanoimino)methyl]amino]phenyl]carbonyl]amino]acetyl]amino]-3,5-dichlorobenzenepropanoic acid] | 25.6 nM | 10400 nM
CCOC(=O)/N=C(/NC(=O)OCC)Nc1cccc(C(=O)NCC(=O)NC(CC(=O)O)c2cc(Cl)cc(Cl)c2)c1 (stereo not drawn) [Example 166, 3,5-dichloro-β-[[2-[[[3-[[[(ethoxycarbonyl)amino][(ethoxycarbonyl)imino]methyl]amino]phenyl]carbonyl]amino]acetyl]amino]benzenepropanoic acid] | 13000 nM | 45900 nM
N=C(N)Nc1cc(C(=O)NCC(=O)NC(CC(=O)O)c2cc(Cl)cc(Cl)c2)ccc1Cl (stereo not drawn) [Example 168, β-[[2-[[[3-[(aminoiminomethyl)amino]-4-chlorophenyl]carbonyl]amino]acetyl]amino]-3,5-dichlorobenzenepropanoic acid, trifluoroacetate salt] | 2.29 nM | 269 nM
C#C[C@H](CC(=O)O)NC(=O)CNC(=O)c1cccc(N/C(N)=N\C(N)=O)c1 [Example 171, 3S-[[2-[[[3-[[amino[(aminocarbonyl)imino]methyl]amino]phenyl]carbonyl]amino]acetyl]amino]-4-pentynoic acid, trifluoroacetate salt, hydrate] | 0.35 nM | 83.2 nM
C#C[C@H](CC(=O)O)NC(=O)CNC(=O)c1ccc(Cl)c(NC(=N)N)c1 [Example 173, 3S-[[2-[[[3-[(aminoiminomethyl)amino]-4-chlorophenyl]carbonyl]amino]acetyl]amino]-4-pentynoic acid, trifluoroacetate salt] | 0.5 nM | 17.4 nM
CCOC(=O)NC(=S)Nc1cccc(C(=O)NCC(=O)NC(CC(=O)O)c2cc(Cl)cc(Cl)c2)c1 (stereo not drawn) [Example 240, 3,5-dichloro-β-[[2-[[[3-[[[(ethoxycarbonyl)amino]thioxomethyl]amino]phenyl]carbonyl]amino]acetyl]amino]benzenepropanoic acid] | 49400 nM | 76400 nM
CCOC(=O)NC(=N)Nc1cccc(C(=O)NCC(=O)NC(CC(=O)O)c2cc(Cl)cc(Cl)c2)c1 (stereo not drawn) [Example 241, 3,5-dichloro-β-[[2-[[[3-[[[(ethoxycarbonyl)amino]iminomethyl]amino]phenyl]carbonyl]amino]acetyl]amino]benzenepropanoic acid, trifluoroacetate salt, monohydrate] | 557 nM | 17200 nM
N=C(N)Nc1cccc(C(=O)NCC(=O)NC(CC(=O)O)c2cccc(-c3ccccc3)c2)c1 (stereo not drawn) [Example 242, β-[[2-[[[3-[(aminoiminomethyl)amino]phenyl]carbonyl]amino]acetyl]amino][1,1′-biphenyl]-3-propanoic acid] | 2.28 nM | 533 nM
N=C(N)Nc1cccc(C(=O)NCC(=O)NC(CC(=O)O)c2cncnc2)c1 (stereo not drawn) [Example 243, β-[[2-[[[3-[(aminoiminomethyl)amino]phenyl]carbonyl]amino]acetyl]amino][pyrimidine-5-propanoic acid, trifluoroacetate salt] | 0.35 nM | 23.6 nM
Cc1ccsc1C(CC(=O)O)NC(=O)CNC(=O)c1cccc(NC(=N)N)c1 (stereo not drawn) [Example 244, β-[[2-[[[3-[(aminoiminomethyl)amino]phenyl]carbonyl]amino]acetyl]amino]-3-methylthiophene-2-propanoic acid, trifluoroacetate salt] | 17.6 nM | 4560 nM
CS(=O)(=O)c1cccc(C(CC(=O)O)NC(=O)CNC(=O)c2cccc(NC(=N)N)c2)c1 (stereo not drawn) [Example 247, β-[[2-[[[3-[(aminoiminomethyl)amino]phenyl]carbonyl]amino]acetyl]amino]-3-(methylsulfonyl)benzenepropanoic acid, bis(trifluoroacetate)salt] | 1.24 nM | 417 nM
CCOc1cc(OCC)cc(C(CC(=O)O)NC(=O)CNC(=O)c2cccc(NC(=N)N)c2)c1 (stereo not drawn) [Example 249, β-[[2-[[[3-[(aminoiminomethyl)amino]phenyl]carbonyl]amino]acetyl]amino]-3,5-diethoxybenzenepropanoic acid, trifluoroacetate salt] | 5.31 nM | 244 nM
N=C(N)Nc1cccc(C(=O)NCC(=O)NC(CC(=O)O)c2ccn[nH]2)c1 (stereo not drawn) [Example 252, β-[[2-[[[3-[(aminoiminomethyl)amino]phenyl]carbonyl]amino]acetyl]amino]-1H-pyrazole-3-propanoic acid, trifluoroacetate salt] | 1.52 nM | 213 nM
Cc1ccc(C(CC(=O)O)NC(=O)CNC(=O)c2cccc(NC(=N)N)c2)s1 (stereo not drawn) [Example 253, β-[[2-[[[3-[(aminoiminomethyl)amino]phenyl]carbonyl]amino]acetyl]amino]-5-methylthiophene-2-propanoic acid, trifluoroacetate salt] | 0.84 nM | 109 nM
N=C(N)Nc1cccc(C(=O)NCC(=O)NC(CC(=O)O)c2cc(Cl)cc(Cl)c2Cl)c1 (stereo not drawn) [Example 254, β-[[2-[[[3-[(aminoiminomethyl)amino]phenyl]carbonyl]amino]acetyl]amino]-2,3,5-trichlorobenzenepropanoic acid, trifluoroacetate salt] | 16.5 nM | 6910 nM
N=C(N)Nc1cccc(C(=O)NCC(=O)NC(CC(=O)O)c2ccccc2OCC(=O)O)c1 (stereo not drawn) [Example 255, β-[[2-[[[3-[(aminoiminomethyl)amino]phenyl]carbonyl]amino]acetyl]amino]-2(carboxymethoxy)benzenepropanoic acid, trifluoroacetate salt] | 28.4 nM | 6050 nM
COc1cc(C(CC(=O)O)NC(=O)CNC(=O)c2cccc(NC(=N)N)c2)cc2c1OCO2 (stereo not drawn) [Example 256, β-[[2-[[[3-[(aminoiminomethyl)amino]phenyl]carbonyl]amino]acetyl]amino]-4-methoxy-1,3-benzodioxole-6-propanoic acid, trifluoroacetate salt] | 0.58 nM | 22 nM
COc1ccc(Br)cc1C(CC(=O)O)NC(=O)CNC(=O)c1cccc(NC(=N)N)c1 (stereo not drawn) [Example 257, β-[[2-[[[3-[(aminoiminomethyl)amino]phenyl]carbonyl]amino]acetyl]amino]-5-bromo-2-methoxybenzenepropanoic acid, trifluoroacetate salt] | 49.2 nM | 4660 nM
N=C(N)Nc1cccc(C(=O)NCC(=O)NC(CC(=O)O)c2cc3ccccc3o2)c1 (stereo not drawn) [Example 259, β-[[2-[[[3-[(aminoiminomethyl)amino]phenyl]carbonyl]amino]acetyl]amino]benzofuran-2-propanoic acid, trifluoroacetate salt] | 0.81 nM | 86.7 nM
N=C(N)Nc1cccc(C(=O)NCC(=O)NC(CC(=O)O)c2cccc(OCC(=O)O)c2)c1 (stereo not drawn) [Example 260, β-[[2-[[[3-[(aminoiminomethyl)amino]phenyl]carbonyl]amino]acetyl]amino]-3-(carboxymethoxy)benzenepropanoic acid, trifluoroacetate salt] | 0.74 nM | 65.3 nM
N=C(N)Nc1cccc(C(=O)NCC(=O)NC(CC(=O)O)C(F)(F)F)c1 (stereo not shown) [Example 261, 3-[[2-[[[3-[(aminoiminomethyl)amino]phenyl]carbonyl]aminoacetyl]amino]-4,4,4-trifluorobutanoic acid, trifluoroacetate salt] | 6.47 nM | 4710 nM
CC(C)C(CC(=O)O)NC(=O)CNC(=O)c1cccc(NC(=N)N)c1 (stereo not shown) [Example 263, 3-[[2-[[[3-[(aminoiminomethyl)amino]phenyl]carbonyl]amino]acetyl]amino]-4-methylpentanoic acid, trifluoroacetate salt] | 4.19 nM | 2760 nM
CCC(CC(=O)O)NC(=O)CNC(=O)c1cccc(NC(=N)N)c1 (stereo not shown) [Example 264, 3-[[2-[[[3-[(aminoiminomethyl)amino]phenyl]carbonyl]amino]acetyl]amino]pentanoic acid, trifluoroacetate salt] | 2.18 nM | 574 nM
N=C(N)Nc1cccc(C(=O)NCC(=O)NC(CC(=O)O)c2cc(Br)cc(Cl)c2O)c1 (stereo not drawn) [Example 265, β-[[2-[[[3-[(aminoiminomethyl)amino]phenyl]carbonyl]amino]acetyl]amino]-5-bromo-3-chloro-2-hydroxybenzenepropanoic acid, trifluoroacetate salt] | 6.19 nM | 706 nM
O=C(O)CC(NC(=O)CNC(=O)c1cccc(NC(=O)NCc2ccncc2)c1)c1cccnc1 (stereo not drawn) [Example 266, β-[[2-[[[3-[[[(4-pyridinylmethyl)amino]carbonyl]amino]phenyl]carbonyl]amino]acetyl]amino]pyridine-3-propanoic acid, (bis)trifluoroacetate salt] | 0.77 nM | 1810 nM
